Test results taken from patent US10308644B2, “Heterocyclic compounds as immunomodulators” (Incyte Corporation, priority 2016, dated 2019).

molecular target: PD-1/PD-L1 (Homo sapiens (Human), UniProt Q9NZQ7); assay: PD-1/PD-L1 Homogeneous Time-Resolved Fluorescence (HTRF) Binding Assay; conditions: recombinant human PD-1 (3 nM) and PD-L1 (10 nM), 25° C., PBS pH 7.4
In short: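 Fc-tagged human PD-1 (25-167, 3 nM) and His-tagged PD-L1 (19-238, 10 nM) preincubated with inhibitor 40 min in PBS pH 7.4, 0.05% Tween-20, 0.1% BSA, 1% DMSO, 25 °C. Binding detected by HTRF (Eu anti-IgG/APC anti-His, 665/620 nm) after 60 min; IC50 from percent control activity.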

PD-1/PD-L1, sequence (Q9NZQ7 19-238): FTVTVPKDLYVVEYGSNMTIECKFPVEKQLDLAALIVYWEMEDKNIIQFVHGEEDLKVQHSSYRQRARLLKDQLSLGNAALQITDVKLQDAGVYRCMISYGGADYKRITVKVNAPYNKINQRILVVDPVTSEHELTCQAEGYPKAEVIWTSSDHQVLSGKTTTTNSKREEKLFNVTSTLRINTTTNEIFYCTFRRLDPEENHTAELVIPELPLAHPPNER

IC50, ≤ 10 nM:
Cc1c(Nc2nccc3cc(CN4CC[C@H](O)C4)cnc23)cccc1-c1cccc(-c2nc3cc(CN4CCCC[C@H]4C(=O)O)cc(C#N)c3o2)c1C [Example 27, (S)-1-((7-cyano-2-(3′-(3-(((S)-3-hydroxypyrrolidin-1-yl)methyl)-1,7-naphthyridin-8-ylamino)-2,2′-dimethylbiphenyl-3-yl)benzo[d]oxazol-5-yl)methyl)piperidine-2-carboxylic acid]
Cc1c(-c2nc3c(o2)CN(C(=O)CN(C)CCO)C3)cccc1-c1cccc(-c2nc3cc(CN4CC[C@@](C)(C(=O)O)C4)cc(C#N)c3o2)c1C [Example 252, (R)-1-((7-cyano-2-(3′-(5-(N-(2-hydroxyethyl)-N-methylglycyl)-5,6-dihydro-4H-pyrrolo[3,4-d]oxazol-2 yl)-2,2'-dimethyl-[1,1′-biphenyl]-3-yl)benzo[d]oxazol-5-yl)methyl)-3-methylpyrrolidine-3-carboxylic acid]
Cc1c(-c2nc3cc(CN4CC[C@@H](C(=O)O)C4)cc(C#N)c3o2)cccc1-c1cccc(-c2nc3c(s2)CN(C(C)CO)CC3)c1C (stereo partly drawn) [Example 66, (3R)-1-((7-cyano-2-(3′-(5-(1-hydroxypropan-2-yl)-4,5,6,7-tetrahydrothiazolo[5,4-c]pyridin-2-yl)-2,2′-dimethyl-[1,1′-biphenyl]-3-yl)benzo[d]oxazol-5-yl)methyl)pyrrolidine-3-carboxylic acid]
Cc1c(-c2nc3cc(CN4CC[C@@](C)(C(=O)O)C4)cc(C#N)c3o2)cccc1-c1cccc(-c2nc3c(s2)CN(C(=O)CN(C)C(C)C)C3)c1C [Example 217, (R)-1-((7-cyano-2-(3′-(5-(2-(isopropyl(methyl)amino)acetyl)-5,6-dihydro-4H-pyrrolo[3,4-d]thiazol-2-yl)-2,2′-dimethylbiphenyl-3-yl)benzo[d]oxazol-5-yl)methyl)-3-methylpyrrolidine-3-carboxylic acid]
Cc1c(Nc2ncnc3cc(CN4CCCC4)cnc23)cccc1-c1cccc(-c2nc3cc(CN4CC[C@@H](C(=O)O)C4)cc(C#N)c3o2)c1C [Example 209, (R)-1-((7-cyano-2-(2,2′-dimethyl-3′-(7-(pyrrolidin-1-ylmethyl)pyrido[3,2-d]pyrimidin-4-ylamino)biphenyl-3-yl)benzo[d]oxazol-5-yl)methyl)pyrrolidine-3-carboxylic acid]
Cc1c(NC(=O)c2nc3c(n2C)CCN(C)C3)cccc1-c1cccc(-c2nc3cc(CN4CC[C@H](C(=O)O)C4)cc(C#N)c3o2)c1C [Example 36, (S)-1-((7-cyano-2-(3′-(1,5-dimethyl-4,5,6,7-tetrahydro-1H-imidazo[4,5-c]pyridine-2-carboxamido)-2,2′-dimethylbiphenyl-3-yl)benzo[d]oxazol-5-yl)methyl)pyrrolidine-3-carboxylic acid]
Cc1c(Nc2nccc3cc(C4CCCN4)cnc23)cccc1-c1cccc(-c2nc3cc(CN4CC[C@@H](C(=O)O)C4)cc(C#N)c3o2)c1C (single isomer, unassigned) [Example 98]
Cc1c(Nc2nccc3cc(CN4CC[C@@H](C(=O)O)C4)cnc23)cccc1-c1cccc(-c2nc3cc(CN4CC[C@@H](O)C4)cc(C#N)c3o2)c1C [Example 141, (R)-1-((8-(3′-(7-cyano-5-(((R)-3-hydroxypyrrolidin-1-yl)methyl)benzo[d]oxazol-2-yl)-2,2′-dimethylbiphenyl-3-ylamino)-1,7-naphthyridin-3-yl)methyl)pyrrolidine-3-carboxylic acid]
Cc1c(-c2nc3cc(CN4CC[C@@](C)(C(=O)O)C4)cc(C#N)c3o2)cccc1-c1cccc(NC(=O)c2nc3c(n2C)CCN(C[C@@H](C)O)C3)c1Cl [Example 157, (R)-1-((2-(2′-chloro-3′-(5-((R)-2-hydroxypropyl)-1-methyl-4,5,6,7-tetrahydro-1H-imidazo[4,5-c]pyridine-2-carboxamido)-2-methylbiphenyl-3-yl)-7-cyanobenzo[d]oxazol-5-yl)methyl)-3-methylpyrrolidine-3-carboxylic acid]
